Laboratory results from ChEMBL document CHEMBL5252586, “2-[(2-Amino-6-methylpyrimidin-4-yl)sulfanyl]-N-arylacetamides: Discovery of a new class of anti-tubercular agents and prospects for their further structural modification” (Bioorg Med Chem Lett, 2023).
In brackets after ≈: the same amount, converted by molar mass. Activity calls are given as the source filed them. The rule behind the calls is not given here.

Test system: Mycobacterium tuberculosis
Experiment: Antimycobacterial activity against Mycobacterium tuberculosis H37Rv assessed as reduction in bacterial growth
Assay type: functional
Conditions: not given

| SMILES | MIC [µg/mL] |
| --- | --- |
| NNC(=O)c1ccncc1 [ISONIAZID] | 0.1 (≈ 0.729 µM) |
| Cc1ccc(NC(=O)CSc2cc(C)nc(N)n2)c(C)c1 | 100 (≈ 331 µM) |
| Cc1cc(SCC(=O)Nc2ccccc2)nc(N)n1 | 100 (≈ 364 µM) |
| Cc1cc(SCC(=O)Nc2cccc(Cl)c2C)nc(N)n1 | 100 (≈ 310 µM) |
| Cc1cc(SCC(=O)Nc2ccc(C(C)C)cc2)nc(N)n1 | 1.5 (≈ 4.74 µM) |
| Cc1cc(SCC(=O)Nc2cc(C(F)(F)F)ccc2Cl)nc(N)n1 | 25 (≈ 66.3 µM) |
| CO[C@H]1/C=C/O[C@@]2(C)Oc3c(C)c(O)c4c(O)c(c(/C=N/N5CCN(C)CC5)c(O)c4c3C2=O)NC(=O)/C(C)=C\C=C\[C@H](C)[C@H](O)[C@@H](C)[C@@H](O)[C@@H](C)[C@H](OC(C)=O)[C@@H]1C [RIFAMPIN] | 0.5 (≈ 0.608 µM) |
| Cc1cc(SCC(=O)Nc2cc(Cl)ccc2Cl)nc(N)n1 | 1.5 (≈ 4.37 µM) |
| Cc1cc(SCC(=O)Nc2ccc(F)cc2)nc(N)n1 | 100 (≈ 342 µM) |
| CC[C@@H](CO)NCCN[C@@H](CC)CO [ETHAMBUTOL] | 5 (≈ 24.5 µM) |

Test system: Mycobacterium tuberculosis
Experiment: Antimycobacterial activity against Mycobacterium tuberculosis H37Rv assessed as reduction in bacterial growth at 100 microg/ml
Assay type: functional, organism-based
Conditions: dose 100.0 µg/ml

| SMILES | Activity |
| --- | --- |
| Cc1ccc(NC(=O)CSc2cc(C)nc(N)n2)cc1 | inactive |

Test system: not listed separately
Experiment: Solubility of compound
Assay type: physicochemical
Conditions: not given

| SMILES | solubility |
| --- | --- |
| Cc1cc(=O)[nH]c(N)n1 | Soluble |
